Data as given in patent US5747540A, “HIV protease inhibitors useful for the treatment of AIDS” (Merck & Co., Inc., priority 1996, dated 1998).

What was measured:
HIV protease = molecular target: T1, HIV protease (Human immunodeficiency virus type 1 group M subtype B, UniProt P12497); assay: Assay for inhibition of microbial expressed HIV protease (peptide substrate, HPLC); type: biochemical; conditions: protease expressed in Eschericia coli, 50 mM Na acetate, pH 5.5, 30° C., 1 hour
T1 construct: the protease expressed in Eschericia coli; made in house; host or cells: Escherichia coli
Experimental: Assay for Inhibition of Microbial Expressed HIV Protease
Inhibition studies of the reaction of the protease expressed in Eschericia coli with a peptide substrate [Val-Ser-Gln-Asn(betanapthyl)Ala-Pro-Ile-Val, 0.5 mg/mL at the time the reaction is initiated] were in 50 mM Na acetate, pH 5.5, at 30° C. for 1 hour. Various concentrations of inhibitor in […] DMSO were added to […] of the peptide solution in water. The reaction is initiated by the addition of […] of 0.33 nM protease (0.11 ng) in a solution of 0.133M Na acetate pH 5.5 and 0.1% bovine serum albumin. The reaction was quenched with 160 ml of 5% phosphoric acid. Products of the reaction were separated by HPLC (VYDAC wide pore 5 cm C-18 reverse phase, acetonitrile gradient, 0.1% phosphoric acid). The extent of inhibition of the reaction was determined from the peak heights of the products.

HIV-1 strain IIIb = assay: Inhibition of virus spread in HIV-infected MT-4 cells (p24 antigen); type: cell-based; conditions: Human immunodeficiency virus 1, MT4, 72 h; HIV-1 IIIb-infected MT-4 cells; 3 days incubation; HIV p24 antigen in supernatant; read-out: CIC95
Experimental: INHIBITION OF VIRUS SPREAD
A. Preparation of HIV-infected MT-4 cell Suspension.
MT cells were infected at Day 0 at a concentration of 250,000 per ml with a 1:1000 dilution of HIV-1 strain IIIb stock (final 125 pg p24/ml; sufficient to yield ≤1% infected cells on day 1 and 25-100% on day 4). Cells were infected and grown in the following medium: RPMI 1640 (Whittaker BioProducts), 10% inactivated fetal bovine serum, 4 mM glutamine (Gibco Labs) and 1:100 Penicillin-Streptomycin (Gibco Labs).
The mixture was incubated overnight at 37° C. in 5% CO2 atmosphere.
B. Treatment with Inhibitors
A matrix of nanomolar range concentrations of the pairwise combinations was prepared. At Day 1, aliquots of […] of inhibitors were added to equal volumes of HIV-infected MT-4 cells (50,000 per well) in a 96-well microtiter cell culture plate. Incubation was continued for 3 days at 37° C. in 5% CO2 atmosphere.
C. Measurement of Virus Spread
Using a multichannel pipettor, the settled cells were resuspended and […] harvested into a separate microtiter plate. The supernatant was assayed for HIV p24 antigen.
The concentration of HIV p24 antigen was measured by an enzyme immunoassay,described as follows. Aliquots of p24 antigen to be measured were added to microwells coated with a monoclonal antibody specific for HIV core antigen. […]

Row | IC50 (HIV protease) | SMILES | IC95 (HIV-1 strain IIIb)
1 | 1 to 6 nM | CC(C)(C)NS(=O)(=O)c1ccccc1C[C@@H](O)C[C@@H](Cc1ccccc1)C(=O)N[C@H]1c2ccccc2C[C@H]1O [Compound B] | 1500 nM
2 | 1 to 6 nM | Cc1ccc(C[C@@H](O)C[C@@H](Cc2ccccc2)C(=O)N[C@H]2c3ccccc3C[C@H]2O)c(C(=O)NC(C)(C)C)c1 [Compound C] | –
3 | 1 to 6 nM | CC(C)(C)NC(=O)c1ccccc1C[C@@H](O)C[C@@H](Cc1ccccc1)C(=O)N[C@H]1c2ccccc2C[C@H]1O [Compound A] | 800 nM
